Results published in patent publication US10918741B2, “PSMA-targeting imaging agents” (THE CLEVELAND CLINIC FOUNDATION, priority 2014, dated 2021).
Entries after “also recorded” stand apart in the source; their conditions may differ. Primed or numbered codes have the meaning given here. Where no end group is shown, it is not given here. [ ]: non-standard residue; d: D form. Amc = N-aminomethyl cyclohexanoic acid; Ahx = NCCCCCC(=O)O; E′E = Glu-urea-Glu

Tests used:
[1] = hematological, biochemistry, and histopathological analyses; cited from earlier work
[2] = cited from earlier work
[3] = tested on: PC3-PIP (PSMA+) and PC3-flu (PSMA−) tumor xenographs; assay: SPECT/CT imaging of [^99mTc]3; type: in vivo, mice; details: 4 hours after tail vein injection
Method: (§1) Male NOD scid gamma (NSG) mice bearing PC3-PIP (PSMA+) and PC3-flu (PSMA−) tumor xenographs were used for imaging. The mice were injected with 3 mCi of [^99mTc]3. Four hours after tracer injection, SPECT/CT images were acquired using a high-resolution multi-pinhole SPECT with collimation insert with a clinical SPECT/CT scanner (Symbia T6, Siemens Molecular Imaging). DiFilippo, F. P. Phys Med Biol 53(15): 4185-4201 (2008). For the biodistribution study without imaging, male NSG mice bearing two PC3-PIP tumors were injected with 50-100 µCi of [^99mTc]3. Mice were sacrificed at 2 hours, 4 hours and 6 hours after injection. After thoracotomy, blood was first withdrawn from the heart, then the organs were resected en-block. The activities were counted with a Perkin Elmer 2480 Automatic Gamma Counter. The decay corrected percent injected dose per gram of organ weight (wet) (% ID/g) was calculated.

[4] = type: physicochemical
Method: Labeling with technetium typically yields 95% radiochemical purity after SepPak purification. […] The kidneys and bladder are the most prominent organs on the images, because PSMA is expressed naturally in mouse kidneys and because it is a renally excreted compound. […] Tumor uptake is 6.0±1.6% at 2 hours, 6.0±2.2% at 4 hours and 5.7%±2.5% at 6 hours (Table 2). […] This is likely related to residual pertechnetate after cartridge purification and dissociation of technetium from the chelate.

PC3-PIP tumors = tested on: PC3-PIP tumors; design: species or system mice; details: mouse, in vivo
Method: as §1

[5] = tested on: PC3-pip (PSMA-positive) and PC3-flu (PSMA-negative) tumors; assay: Preoperative NIR imaging with the Maestro in vivo imaging system; design: species or system mice
Method: PC3-pip (PSMA-positive) and PC3-flu (PSMA-negative) cells were injected subcutaneously 1.0×10^6 PC3 cells with 200 µL of matrigel into each flank of 6 NOD SCID Gamma (NSG) mice. Chang et al., Cancer Res.; 59:3192-3198 (1999). After the tumors reached a size of ˜5 mm, the mice were anesthetized with isoflurane and were administered 2 or 10 nmol of PSMA-binding fluorescent conjugate via tail vein injection. Preoperative NIR imaging was performed using the Maestro in vivo imaging system (Cambridge Research and Instrumentation, Hopkinton, Mass.). The mice were imaged immediately and at 1-hour intervals after injection of the PSMA targeting fluorescent compound for up to 4 hours. The mice were killed once PSMA+ and PSMA− tumors could be visually differentiated by NIR imaging. The method used was CO2 asphyxiation followed by cervical dislocation.

[6] = tested on: PC3-pip (PSMA-positive) and PC3-flu (PSMA-negative) tumors; assay: NIR fluorescence-guided robotic surgery (da Vinci Si); type: in vivo, mice
Text: Mouse carcasses were operated on using a da Vinci Si Robot (Intuitive Surgical, Sunnyvale, Calif.). A portable dark box was used to minimize ambient light and to allow optimal fluorescence detection. Three robotic instruments (the novel endoscope to detect NIR fluorescence, a scissor, and a grasper) were inserted through robotic trocars positioned across the top cover of the dark box. The tumors were excised using the new robotic camera to detect the fluorescence of the PSMA-binding conjugate. All procedures were done by a single surgeon (R.S.), who had extensive experience in robotic surgery. Tumor specimens were sent for histopathological analysis to assess margin status.

Molecule: CC1(C)C(=CC=C2CCCC(C=CC3=[N+](CCCCCC(=O)[O-])c4ccc(S(=O)(=O)[O-])cc4C3(C)C)=C2Oc2ccc(S(=O)(=O)[O-])cc2)N(CCCCS(=O)(=O)[O-])c2ccc(S(=O)(=O)[O-])cc21.[Na+].[Na+].[Na+].[Na+] [IRDye 800CW]
- toxicity in words [1]: no pathologic evidence of toxicity
- water solubility in words [2]: highly water soluble

Molecule: ^99mTc-E′EAmc-Ahx-dEdEdEGYGGGC ({E′E-Amc}-[Ahx][dE][dE][dE]GYGGGC; not fully specified (C-terminus); also: 99mTc chelated (N3S1)) [[^99mTc]3, Tc99m labeled compound 3]
- SPECT/CT imaging result in words [3]: specific targeting of PSMA+PC3-PIP tumors with no significant binding to PC3-flu tumors; also recorded: near background tracer uptake in the PSMA negative tumors, liver, lung, heart and spleen
- stability under solvent conditions for HPLC [4]: not stable
- radioactivity in the stomach (PC3-PIP tumors): 0.2 % ID/g
- radioactivity in the thyroid (PC3-PIP tumors): 0.3 % ID/g

Molecule: ZJ-MCC-dEdEdEGK(IRDye800cw)G
- mice with proper targeting on presurgical NIR imaging ([5]; 10 nmol): Two of the 3 mice
- preoperative NIR fluorescence imaging result in words ([5]; Maestro in vivo imaging system): strong fluorescence signal from the tracer in the right flank (PSMA positive tumor), bladder, and urethra
- time to detect peak fluorescence from the PSMA-positive tumors ([5]; first 3 mice, Maestro imaging system): 120 min
- signal intensity from the tumor ([5]; within 240 minutes): already partially decreased
- mice with fluorescence detected from the PSMA positive tumors during robotic surgery ([6]; 10 nmol, 120 minutes after injection): 2 of 3
- intensity of fluorescence during robotic surgery ([6]; PSMA positive tumors): weak
- fluorescence in the PSMA negative (control) tumors ([6]; mouse, in vivo): no tumor fluorescence was identified in any of the mice
